Experimental data: BindingDB's records for doi:10.1021/jm9904102 (Abbott Laboratories, 2000)

Biological target: T1, Polyunsaturated fatty acid 5-lipoxygenase (Homo sapiens, UniProt P09917)
T1 sequence (P09917 whole entry): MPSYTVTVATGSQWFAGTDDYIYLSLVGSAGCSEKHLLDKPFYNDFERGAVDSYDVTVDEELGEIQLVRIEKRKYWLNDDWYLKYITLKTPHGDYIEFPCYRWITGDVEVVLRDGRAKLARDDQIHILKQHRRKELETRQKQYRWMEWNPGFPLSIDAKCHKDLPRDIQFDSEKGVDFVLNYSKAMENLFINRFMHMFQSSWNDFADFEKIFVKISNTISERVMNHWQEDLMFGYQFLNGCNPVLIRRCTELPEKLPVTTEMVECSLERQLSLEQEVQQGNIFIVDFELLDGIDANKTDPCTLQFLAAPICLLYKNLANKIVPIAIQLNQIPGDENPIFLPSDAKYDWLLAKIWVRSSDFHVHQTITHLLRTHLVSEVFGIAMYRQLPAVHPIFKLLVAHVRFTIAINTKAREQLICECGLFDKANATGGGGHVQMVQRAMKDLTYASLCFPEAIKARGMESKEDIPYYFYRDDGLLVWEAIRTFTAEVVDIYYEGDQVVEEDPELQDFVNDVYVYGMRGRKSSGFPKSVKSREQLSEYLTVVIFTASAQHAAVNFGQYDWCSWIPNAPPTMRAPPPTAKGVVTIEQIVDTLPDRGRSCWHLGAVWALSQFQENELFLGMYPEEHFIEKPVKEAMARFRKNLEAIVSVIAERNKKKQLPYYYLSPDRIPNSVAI
Assay: Inhibition of calcium ionophore (A-23187)-stimulated LTB4 formation in human neutrophil assay

SMILES | IC50
C/C(=N\OC(c1ccc(OCc2ccc3ccccc3n2)cc1)C1CCCCC1)C(=O)O (stereo unspecified) [S-E-2-{Cyclohexyl-[4-(quinolin-2-ylmethoxy)-phenyl]-methoxyimino}-propionic acid] | 15 nM

Biological target: not listed separately
Assay: Inhibition of calcium ionophore (A-23187)-stimulated LTB4 formation in human neutrophil assay

SMILES | IC50
C/C(=N\OC(c1cc2cc(OCc3ccc4ccccc4n3)ccc2s1)C1CCCCC1)C(=O)O (stereo unspecified) [2-{Cyclohexyl-[5-(quinolin-2-ylmethoxy)-benzo[b]thiophen-2-yl]-methoxyimino}-propionic acid] | 33 nM
CCCCC(CCCC)C(O/N=C/C(=O)O)c1ccc(OCc2ccc3ccccc3n2)cc1 (stereo unspecified) [{2-Butyl-1-[4-(quinolin-2-ylmethoxy)-phenyl]-hexyloxyimino}-acetic acid] | 10 nM
O=C(O)/C=N/OCC(c1ccc(OCc2ccc3ccccc3n2)cc1)C1CCCCC1 (stereo unspecified) [{2-Cyclohexyl-2-[4-(quinolin-2-ylmethoxy)-phenyl]-ethoxyimino}-acetic acid (0.25H2O)] | 47 nM
CC(C)c1ccc(-c2csc(COc3ccc(C(O/N=C/C(=O)O)C4CCCCC4)cc3)n2)cc1 (stereo unspecified) [(Cyclohexyl-{4-[4-(4-isopropyl-phenyl)-thiazol-2-ylmethoxy]-phenyl}-methoxyimino)-acetic acid (2H2O)] | 35 nM
CC(C)(C)Sc1c(CC(C)(C)C(=O)O)n(Cc2ccc(Cl)cc2)c2ccc(OCc3ccc4ccccc4n3)cc12 [MK-591] | 8 nM
O=C(O)/C=N/OC(CC1CCCCC1)c1ccc(OCc2ccc3ccccc3n2)cc1 (stereo unspecified) [{2-Cyclohexyl-1-[4-(quinolin-2-ylmethoxy)-phenyl]-ethoxyimino}-acetic acid] | 27 nM
O=C(O)/C=N/OC(c1ccc(OCc2nc3ccccc3s2)cc1Br)C1CCCCC1 (stereo unspecified) [{[4-(Benzothiazol-2-ylmethoxy)-2-bromo-phenyl]-cyclohexyl-methoxyimino}-acetic acid] | 22 nM
CC(C)(C)SC/C(=N\OC(c1ccc(OCc2ccc3ccccc3n2)cc1)C1CCCCC1)C(=O)O (stereo unspecified) [3-tert-Butylsulfanyl-2-{cyclohexyl-[4-(quinolin-2-ylmethoxy)-phenyl]-methoxyimino}-propionic acid] | 120 nM
C/C(=N\OC(c1ccc(OCc2nc3ccccc3s2)cc1Cl)C1CCCCC1)C(=O)O (stereo unspecified) [2-{[4-(Benzothiazol-2-ylmethoxy)-2-chloro-phenyl]-cyclohexyl-methoxyimino}-propionic acid] | 28 nM
O=C(O)CSC(CCCc1ccc(Cl)cc1)c1ccc(OCc2ccc3ccccc3n2)cc1 [L-674636] | 7 nM
